Measurements reported in patent US10766884B2 (Pfizer Inc., priority 2018, dated 2020).
Counter-ions that a name gives are not always drawn.

Key:
CDK6/Cyclin D3 = CDK6/Cyclin D3 (Homo sapiens (Human), UniProt Q00534); test: CDK6/Cyclin D3 mobility shift assay; assay type: biochemical; conditions: activated CDK6/Cyclin D3, 3.5 mM ATP, Morrison fit; read-out: CDK6_D3 Ki
CDK4 = CDK4 (Homo sapiens (Human), UniProt P11802); test: Phospho-Serine 795 Rb ELISA assay in JEKO-1 cells; assay type: cell-based; conditions: overnight treatment, phospho-Rb S795, read-out: CDK4 pRB S795 ELISA JEKO-1 cells IC50
CDK6 = CDK6 (Homo sapiens (Human), UniProt Q00534); test: Phospho-Serine 795 Rb ELISA assay in MV4-11 cells; assay type: cell-based; conditions: overnight treatment, phospho-Rb S795, read-out: CDK6 pRB S795 ELISA MV4-11 cells IC50
CDK4/Cyclin D1 = CDK4/Cyclin D1 (Homo sapiens (Human), UniProt P11802); test: CDK4/Cyclin D1 mobility shift assay; assay type: biochemical; conditions: activated CDK4/Cyclin D1, 3.5 mM ATP, Morrison fit; read-out: CDK4D1 Ki
Sequence of CDK4/Cyclin D1 (P11802 whole entry): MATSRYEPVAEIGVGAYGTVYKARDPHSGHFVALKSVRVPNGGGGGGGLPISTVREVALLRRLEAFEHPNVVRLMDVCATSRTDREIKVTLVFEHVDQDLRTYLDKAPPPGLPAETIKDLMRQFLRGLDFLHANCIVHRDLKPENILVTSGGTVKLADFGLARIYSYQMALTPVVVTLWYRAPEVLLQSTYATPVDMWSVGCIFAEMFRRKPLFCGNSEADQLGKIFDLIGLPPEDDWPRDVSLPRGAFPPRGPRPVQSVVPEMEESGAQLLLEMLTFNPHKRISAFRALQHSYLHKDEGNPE
Sequence of CDK4/Cyclin D1 (P24385 whole entry partner): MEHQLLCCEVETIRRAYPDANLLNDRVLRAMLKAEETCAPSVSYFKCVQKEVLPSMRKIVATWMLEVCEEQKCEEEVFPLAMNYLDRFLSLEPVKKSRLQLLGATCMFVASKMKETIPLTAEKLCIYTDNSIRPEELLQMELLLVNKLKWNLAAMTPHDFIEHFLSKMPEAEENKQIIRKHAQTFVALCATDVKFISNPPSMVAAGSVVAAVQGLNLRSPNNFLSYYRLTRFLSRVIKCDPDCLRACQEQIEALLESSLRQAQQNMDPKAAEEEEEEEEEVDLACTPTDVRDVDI

Sequence of CDK4 (P11802 2-303): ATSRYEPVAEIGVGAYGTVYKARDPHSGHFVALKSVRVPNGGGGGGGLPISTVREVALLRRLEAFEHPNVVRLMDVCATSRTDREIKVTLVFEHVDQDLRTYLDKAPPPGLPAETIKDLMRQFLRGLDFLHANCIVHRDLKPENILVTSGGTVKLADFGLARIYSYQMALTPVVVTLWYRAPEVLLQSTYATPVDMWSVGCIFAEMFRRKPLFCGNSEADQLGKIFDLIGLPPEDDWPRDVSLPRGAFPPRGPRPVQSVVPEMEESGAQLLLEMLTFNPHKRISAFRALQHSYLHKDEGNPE
Sequence of CDK4 (P24385 whole entry partner): as the sequence (P24385 whole entry partner) above
Sequence of CDK6/Cyclin D3 (Q00534 whole entry): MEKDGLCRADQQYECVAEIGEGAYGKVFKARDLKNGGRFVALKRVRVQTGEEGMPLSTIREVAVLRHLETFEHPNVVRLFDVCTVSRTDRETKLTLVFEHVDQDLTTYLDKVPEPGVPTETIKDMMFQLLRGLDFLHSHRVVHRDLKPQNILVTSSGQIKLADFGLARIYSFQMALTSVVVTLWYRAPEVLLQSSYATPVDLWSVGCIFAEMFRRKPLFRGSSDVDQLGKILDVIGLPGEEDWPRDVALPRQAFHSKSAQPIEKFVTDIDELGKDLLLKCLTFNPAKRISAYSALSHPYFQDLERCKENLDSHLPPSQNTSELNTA
Sequence of CDK6/Cyclin D3 (P30281 whole entry partner): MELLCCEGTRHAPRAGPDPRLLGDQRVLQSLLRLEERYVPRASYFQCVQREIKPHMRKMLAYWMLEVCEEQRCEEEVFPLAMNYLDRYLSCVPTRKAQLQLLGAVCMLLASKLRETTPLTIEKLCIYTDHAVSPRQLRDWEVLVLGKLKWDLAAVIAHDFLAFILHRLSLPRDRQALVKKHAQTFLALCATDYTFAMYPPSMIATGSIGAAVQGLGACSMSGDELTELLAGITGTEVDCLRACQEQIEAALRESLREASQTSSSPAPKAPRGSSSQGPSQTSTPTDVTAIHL
Sequence of CDK6 (Q00534 whole entry): as the sequence (Q00534 whole entry) above
Sequence of CDK6 (P30281 whole entry partner): as the sequence (P30281 whole entry partner) above

SMILES	Ki (CDK6/Cyclin D3) [µM]	IC50 (CDK4) [µM]	IC50 (CDK6) [µM]	Ki (CDK4/Cyclin D1) [µM]
Cc1nc2cc(Cl)c(-c3nc(N[C@@H]4CCN(S(C)(=O)=O)C[C@H]4O)ncc3F)cc2n1C(C)C [Example C01, (3R,4R)-4-({4-[5-chloro-2-methyl-1-(propan-2-yl)-1H-benzimidazol-6-yl]-5-fluoropyrimidin-2-yl}amino)-1-(methanesulfonyl)piperidin-3-ol]	0.0981	0.176	1.38	0.0052
Cc1nc2ccc(-c3cc(N[C@@H]4CCN(S(C)(=O)=O)C[C@H]4O)ncc3Cl)nc2n1C(C)C [Example D04, (3R,4R)-4-({5-chloro-4-[2-methyl-3-(propan-2-yl)-3H-imidazo[4,5-b]pyridin-5-yl]pyridin-2-yl}amino)-1-(methanesulfonyl)piperidin-3-ol]	0.0125	0.0682	0.172	0.0006
CC(C)(C)n1cnc2c(F)cc(-c3nc(N[C@@H]4CCN(CCO)C[C@H]4O)ncc3Cl)cc21 [Example F05, (3R,4R)-4-{[4-(1-tert-butyl-4-fluoro-1H-benzimidazol-6-yl)-5-chloropyrimidin-2-yl]amino}-1-(2-hydroxyethyl)piperidin-3-ol formic acid salt]	0.0258	0.248	0.478	0.0021
CN(C)CCN1CC[C@@H](Nc2ncc(Cl)c(-c3cc(F)c4ncn(C(C)(C)C)c4c3)n2)[C@H](O)C1 [Example F06, (3R,4R)-4-{[4-(1-tert-butyl-4-fluoro-1H-benzimidazol-6-yl)-5-chloropyrimidin-2-yl]amino}-1-[2-(dimethylamino)ethyl]piperidin-3-ol formic acid salt]	0.0278	0.161	0.134	0.0015
CC(=O)N1CC[C@@H](Nc2ncc(F)c(-c3cc(F)c4nc(C)n(C(C)C)c4c3)n2)[C@H](O)C1 [Example F16, 1-[(3R,4R)-4-({5-fluoro-4-[4-fluoro-2-methyl-1-(propan-2-yl)-1H-benzimidazol-6-yl]pyrimidin-2-yl}amino)-3-hydroxypiperidin-1-yl]ethan-1-one]	0.026	0.675	0.363	0.0014
CC(C)n1cnc2c(Cl)cc(-c3nc(N[C@@H]4CCN(C(=O)[C@@H](C)O)C[C@H]4O)ncc3Cl)cc21 [Example F20, (2R)-1-[(3R,4R)-4-({5-chloro-4-[4-chloro-1-(propan-2-yl)-1H-benzimidazol-6-yl]pyrimidin-2-yl}amino)-3-hydroxypiperidin-1-yl]-2-hydroxypropan-1-one]	0.0243	0.155	0.787	0.002
C[C@H](O)C(=O)N1CC[C@@H](Nc2ncc(Cl)c(-c3cc(F)c4ncn(C(C)(C)C)c4c3)n2)[C@H](O)C1 [Example F21, (2S)-1-[(3R,4R)-4-{[4-(1-tert-butyl-4-fluoro-1H-benzimidazol-6-yl)-5-chloropyrimidin-2-yl]amino}-3-hydroxypiperidin-1-yl]-2-hydroxypropan-1-one]	0.0077	0.0595	0.246	0.0004
CNCC(=O)N1CC[C@@H](Nc2ncc(Cl)c(-c3cc(F)c4ncn(C(C)(C)C)c4c3)n2)[C@H](O)C1 [Example F25, 1-[(3R,4R)-4-{[4-(1-tert-butyl-4-fluoro-1H-benzimidazol-6-yl)-5-chloropyrimidin-2-yl]amino}-3-hydroxypiperidin-1-yl]-2-(methylamino)ethan-1-one]	0.0193	0.455	0.455	0.0012
CC(C)n1cnc2c(F)cc(-c3nc(N[C@@H]4CCN(C(=O)C5(F)CNC5)C[C@H]4O)ncc3Cl)cc21 [Example F27, [(3R,4R)-4-({5-chloro-4-[4-fluoro-1-(propan-2-yl)-1H-benzimidazol-6-yl]pyrimidin-2-yl}amino)-3-hydroxypiperidin-1-yl](3-fluoroazetidin-3-yl)methanone]	0.0051	0.0608	0.188	0.0005
CC(C)(C)n1cnc2c(F)cc(-c3nc(N[C@@H]4CCN(C(=O)C5(N)CC(F)(F)C5)C[C@H]4O)ncc3Cl)cc21 [Example F30, (1-amino-3,3-difluorocyclobutyl)[(3R,4R)-4-{[4-(1-tert-butyl-4-fluoro-1H-benzimidazol-6-yl)-5-chloropyrimidin-2-yl]amino}-3-hydroxypiperidin-1-yl]methanone]	0.0125	0.0661	0.377	0.0005

Further compounds by falling Ki (CDK6/Cyclin D3), results first:

Ki (CDK6/Cyclin D3) [µM]	IC50 (CDK4) [µM]	IC50 (CDK6) [µM]	Ki (CDK4/Cyclin D1) [µM]	SMILES
0.0893	0.584	1.35	0.0041	CC(C)n1c(C2CNC2)nc2c(F)cc(-c3nc(N[C@@H]4CCOC[C@H]4O)ncc3Cl)cc21 [Example C02, 1,5-anhydro-3-({4-[2-(azetidin-3-yl)-4-fluoro-1-(propan-2-yl)-1H-benzimidazol-6-yl]-5-chloropyrimidin-2-yl}amino)-2,3-dideoxy-D-threo-pentitol]
0.0394	0.0857	0.258	0.0022	Cc1nc2ccc(-c3cc(N[C@@H]4CCOC[C@H]4O)ncc3Cl)nc2n1C(C)C [Example D05, 1,5-anhydro-3-({5-chloro-4-[2-methyl-3-(propan-2-yl)-3H-imidazo[4,5-b]pyridin-5-yl]pyridin-2-yl}amino)-2,3-dideoxy-D-threo-pentitol]
0.0233	0.246	0.644	0.0018	CC(C)n1cnc2c(F)cc(-c3nc(N[C@@H]4CCN(C(=O)C5(N)CC(F)(F)C5)C[C@H]4O)ncc3Cl)cc21 [Example F29, (1-amino-3,3-difluorocyclobutyl)[(3R,4R)-4-({5-chloro-4-[4-fluoro-1-(propan-2-yl)-1H-benzimidazol-6-yl]pyrimidin-2-yl}amino)-3-hydroxypiperidin-1-yl]methanone]
0.0223	0.191	0.745	0.0022	CC(C)n1cnc2c(F)cc(-c3nc(N[C@@H]4CCN(C(=O)C5(N)CC5)C[C@H]4O)ncc3Cl)cc21 [Example F28, (1-aminocyclopropyl)[(3R,4R)-4-({5-chloro-4-[4-fluoro-1-(propan-2-yl)-1H-benzimidazol-6-yl]pyrimidin-2-yl}amino)-3-hydroxypiperidin-1-yl]methanone]
0.0146	0.114	0.576	0.0008	COC(=O)N1CC[C@@H](Nc2ncc(F)c(-c3cc(F)c4nc(C)n(C(C)C)c4c3)n2)[C@H](O)C1 [Example F01, methyl (3R,4R)-4-({5-fluoro-4-[4-fluoro-2-methyl-1-(propan-2-yl)-1H-benzimidazol-6-yl]pyrimidin-2-yl}amino)-3-hydroxypiperidine-1-carboxylate]
0.0128	0.172	0.628	0.0009	CC(C)(C)n1cnc2c(F)cc(-c3cc(N[C@@H]4CCN(C(=O)C(F)(F)CN)C[C@H]4O)ncc3Cl)cc21 [Example F32, 3-amino-1-[(3R,4R)-4-{[4-(1-tert-butyl-4-fluoro-1H-benzimidazol-6-yl)-5-chloropyridin-2-yl]amino}-3-hydroxypiperidin-1-yl]-2,2-difluoropropan-1-one]
0.0115	0.108	0.311	0.0005	CCS(=O)(=O)N1CC[C@@H](Nc2ncc(Cl)c(-c3cc(F)c4nc(C)n(C5COC5)c4c3)n2)[C@H](O)C1 [Example F08, (3R,4R)-4-({5-chloro-4-[4-fluoro-2-methyl-1-(oxetan-3-yl)-1H-benzimidazol-6-yl]pyrimidin-2-yl}amino)-1-(ethanesulfonyl)piperidin-3-ol]
0.011	0.692	1.32	0.001	CNCC(=O)N1CC[C@@H](Nc2ncc(F)c(-c3cc(F)c4nc(C)n(C(C)C)c4c3)n2)[C@H](O)C1 [Example F23, 1-[(3R,4R)-4-({5-fluoro-4-[4-fluoro-2-methyl-1-(propan-2-yl)-1H-benzimidazol-6-yl]pyrimidin-2-yl}amino)-3-hydroxypiperidin-1-yl]-2-(methylamino)ethan-1-one]
0.0091	0.0613	0.171	0.0005	CC(C)(C)n1cnc2ccc(-c3cc(N[C@@H]4CCN(C(=O)CO)C[C@H]4O)ncc3Cl)nc21 [Example F22, 1-[(3R,4R)-4-{[4-(3-tert-butyl-3H-imidazo[4,5-b]pyridin-5-yl)-5-chloropyridin-2-yl]amino}-3-hydroxypiperidin-1-yl]-2-hydroxyethan-1-one]
0.0083	0.0832	0.127	0.0005	Cc1nc2c(F)cc(-c3nc(N[C@@H]4CCN(C(=O)CO)C[C@H]4O)ncc3F)cc2n1C(C)C [Example F17, 1-[(3R,4R)-4-({5-fluoro-4-[4-fluoro-2-methyl-1-(propan-2-yl)-1H-benzimidazol-6-yl]pyrimidin-2-yl}amino)-3-hydroxypiperidin-1-yl]-2-hydroxyethan-1-one]
0.0052	0.0246	0.113	0.0002	CNC(=O)CN1CC[C@@H](Nc2cc(-c3ccc4ncn(C(C)(C)C)c4n3)c(Cl)cn2)[C@H](O)C1 [Example F33, 2-[(3R,4R)-4-{[4-(3-tert-butyl-3H-imidazo[4,5-b]pyridin-5-yl)-5-chloropyridin-2-yl]amino}-3-hydroxypiperidin-1-yl]-N-methylacetamide]
0.0046	0.143	0.182	0.0001	CC(C)(C)n1cnc2c(F)cc(-c3nc(N[C@@H]4CCN(C(=O)C5(F)CNC5)C[C@H]4O)ncc3Cl)cc21 [Example F26, [(3R,4R)-4-{[4-(1-tert-butyl-4-fluoro-1H-benzimidazol-6-yl)-5-chloropyrimidin-2-yl]amino}-3-hydroxypiperidin-1-yl](3-fluoroazetidin-3-yl)methanone]
